Laboratory results from patent publication US4684664A, “Derivatives of β-(4-isocyano-1,2,3,4-diepoxycyclopentyl) acrylic acid” (Kureha Kagaku Kogyo Kabushiki Kaisha, priority 1984, dated 1987).
In brackets after ≈: the same amount, converted by molar mass.

Tests used:
Type in all cases: cell-based
[1] = tested on: Proteus mirabilis IFO 3849; assay: Antibacterial activity, agar-dilution MIC, organism No. 19; settings: Proteus mirabilis, IFO3849; Organism No. 19, bouillon-agar; read-out: Minimum Inhibitory Concentration
How it was run: (§1)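 Values come from agar-dilution plates prepared with bouillon agar; they represent the least specimen concentration (μg/ml of medium) giving inhibition.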

[2] = tested on: Proteus rettgeri IFO 3850; assay: Antibacterial activity, agar-dilution MIC, organism No. 22; settings: Providencia rettgeri, IFO3850; Organism No. 22, bouillon-agar; read-out: Minimum Inhibitory Concentration
How it was run: as §1

[3] = tested on: Bacillus subtilis ATCC 6633; assay: Antibacterial activity, agar-dilution MIC, organism No. 14; settings: Bacillus subtilis, ATCC6633; Organism No. 14, bouillon-agar; read-out: Minimum Inhibitory Concentration
How it was run: as §1

[4] = tested on: Salmonella shottmuelleri 8006; assay: Antibacterial activity, agar-dilution MIC, organism No. 11; settings: Salmonella, 8006; Organism No. 11, bouillon-agar; read-out: Minimum Inhibitory Concentration
How it was run: as §1

[5] = tested on: Escherichia coli K12 C600 IAM 1264; assay: Antibacterial activity, agar-dilution MIC, organism No. 6; settings: Escherichia coli, IAM1264; Organism No. 6, bouillon-agar; read-out: Minimum Inhibitory Concentration
How it was run: as §1

[6] = tested on: Pseudomonas aeruginosa PAO 1; assay: Antibacterial activity, agar-dilution MIC, organism No. 17; settings: Pseudomonas aeruginosa, PAO1; Organism No. 17, bouillon-agar; read-out: Minimum Inhibitory Concentration
How it was run: as §1

[7] = tested on: Streptococcus faecium IFO 3826; assay: Antibacterial activity, agar-dilution MIC, organism No. 27; settings: Enterococcus faecium, IFO3826; Organism No. 27, bouillon-agar; read-out: Minimum Inhibitory Concentration
How it was run: as §1

[8] = tested on: Salmonella typhimurium IID 971; assay: Antibacterial activity, agar-dilution MIC, organism No. 8; settings: Salmonella enterica; Organism No. 8, bouillon-agar; read-out: Minimum Inhibitory Concentration
How it was run: as §1

[9] = tested on: Proteus morganii IFO 3848; assay: Antibacterial activity, agar-dilution MIC, organism No. 18; settings: Morganella morganii, IFO3848; Organism No. 18, bouillon-agar; read-out: Minimum Inhibitory Concentration
How it was run: as §1

[10] = tested on: Aspergillus niger IFO 6342; assay: Antifungal activity, agar-dilution MIC, organism No. 30; settings: Aspergillus niger, IFO6342; Organism No. 30, bouillon-agar; read-out: Minimum Inhibitory Concentration
How it was run: as §1

[11] = tested on: Staphylococcus aureus Terajima; assay: Antibacterial activity, agar-dilution MIC, organism No. 2; settings: Staphylococcus aureus; Organism No. 2, bouillon-agar; read-out: Minimum Inhibitory Concentration
How it was run: as §1

[12] = tested on: Mycoplasma pneumoniae IID817; assay: Antimycoplasmal activity, MIC by phenol red colour change, organism No. 28; settings: Mycoplasma, IID817; Organism No. 28, PPLO broth + 1% glucose, 37° C.; read-out: Minimum Inhibitory Concentration (MIC)
Description: Mycoplasma pneumoniae IID817 was used as the test microorganism in a culture medium prepared by adding 1% of glucose to "PPLO broth (manufactured by Difco Co.) liquid culture medium" at 37° C. with phenol red as an indicator, thereby culturing the test microorganism.

[13] = tested on: Salmonella paratyphi-A 1015; assay: Antibacterial activity, agar-dilution MIC, organism No. 10; settings: Salmonella enterica, PARATYPHI, read-out: Minimum Inhibitory Concentration
How it was run: as §1

[14] = tested on: Staphylococcus aureus FDA 209PJc-1; assay: Antibacterial activity, agar-dilution MIC, organism No. 1; settings: Staphylococcus aureus, FDA209PJC1; Organism No. 1, bouillon-agar; read-out: Minimum Inhibitory Concentration
How it was run: as §1

[15] = tested on: Pseudomonas aeruginosa NCTC 10490; assay: Antibacterial activity, agar-dilution MIC, organism No. 16; settings: Pseudomonas aeruginosa, NCTC10490; Organism No. 16, bouillon-agar; read-out: Minimum Inhibitory Concentration
How it was run: as §1

[16] = tested on: Klebsiella pneumoniae PCI-602; assay: Antibacterial activity, agar-dilution MIC, organism No. 7; settings: Klebsiella pneumoniae, PCI602; Organism No. 7, bouillon-agar; read-out: Minimum Inhibitory Concentration
How it was run: as §1

[17] = tested on: Staphylococcus aureus MS 353; assay: Antibacterial activity, agar-dilution MIC, organism No. 3; settings: Staphylococcus aureus, MS353; Organism No. 3, bouillon-agar; read-out: Minimum Inhibitory Concentration
How it was run: as §1

[18] = tested on: Proteus vulgaris OX-19; assay: Antibacterial activity, agar-dilution MIC, organism No. 20; settings: Proteus vulgaris, OX19; Organism No. 20, bouillon-agar; read-out: Minimum Inhibitory Concentration
How it was run: as §1

[19] = tested on: Enterobacter aerogenes ATCC 13048; assay: Antibacterial activity, agar-dilution MIC, organism No. 23; settings: Klebsiella aerogenes, ATCC13048; Organism No. 23, bouillon-agar; read-out: Minimum Inhibitory Concentration
How it was run: as §1

[20] = tested on: Salmonella typhi 901; assay: Antibacterial activity, agar-dilution MIC, organism No. 9; settings: Salmonella enterica, TYPHI, read-out: Minimum Inhibitory Concentration
How it was run: as §1

[21] = tested on: Pseudomonas aeruginosa IFO 3445; assay: Antibacterial activity, agar-dilution MIC, organism No. 15; settings: Pseudomonas aeruginosa, IFO3445; Organism No. 15, bouillon-agar; read-out: Minimum Inhibitory Concentration
How it was run: as §1

[22] = tested on: Micrococcus luteus ATCC 9341; assay: Antibacterial activity, agar-dilution MIC, organism No. 25; settings: Micrococcus luteus, ATCC9341; Organism No. 25, bouillon-agar; read-out: Minimum Inhibitory Concentration
How it was run: as §1

[23] = tested on: Serratia marcescens IAM 1184; assay: Antibacterial activity, agar-dilution MIC, organism No. 13; settings: Serratia marcescens, IAM1184; Organism No. 13, bouillon-agar; read-out: Minimum Inhibitory Concentration
How it was run: as §1

[24] = tested on: Proteus vulgaris HX-19; assay: Antibacterial activity, agar-dilution MIC, organism No. 21; settings: Proteus vulgaris, HX19; Organism No. 21, bouillon-agar; read-out: Minimum Inhibitory Concentration
How it was run: as §1

[25] = tested on: Streptococcus pyogenes IFO 3340; assay: Antibacterial activity, agar-dilution MIC, organism No. 26; settings: Streptococcus pyogenes, IFO3340; Organism No. 26, bouillon-agar; read-out: Minimum Inhibitory Concentration
How it was run: as §1

[26] = tested on: Enterobacter cloacae 963; assay: Antibacterial activity, agar-dilution MIC, organism No. 24; settings: Enterobacter cloacae, 963; Organism No. 24, bouillon-agar; read-out: Minimum Inhibitory Concentration
How it was run: as §1

[27] = tested on: Streptococcus pyogenes Cook; assay: Antibacterial activity, agar-dilution MIC, organism No. 4; settings: Streptococcus pyogenes; Organism No. 4, bouillon-agar; read-out: Minimum Inhibitory Concentration
How it was run: as §1

[28] = tested on: Escherichia coli NIHJ-JC-2; assay: Antibacterial activity, agar-dilution MIC, organism No. 5; settings: Escherichia coli, NIHJJC2; Organism No. 5, bouillon-agar; read-out: Minimum Inhibitory Concentration
How it was run: as §1

[29] = tested on: Candida albicans IAM 4905; assay: Antifungal activity, agar-dilution MIC, organism No. 29; settings: Candida albicans, IAM4905; Organism No. 29, bouillon-agar; read-out: Minimum Inhibitory Concentration
How it was run: as §1

[30] = tested on: Salmonella enteritidis G 14; assay: Antibacterial activity, agar-dilution MIC, organism No. 12; settings: Salmonella enterica, ENTERITIDIS; Organism No. 12, bouillon-agar; read-out: Minimum Inhibitory Concentration
How it was run: as §1

## [C-]#[N+]C12CC3(/C=C/C(=O)Nc4ccc(N)cc4)OC3C1O2 (stereo not drawn) [compound 59]
[1]
  MIC: > 200 mg/L
[2]
  MIC: 200 mg/L (≈ 706 µM)
[3]
  MIC: 12.5 mg/L (≈ 44.1 µM)
[4]
  MIC: 6.25 mg/L (≈ 22.1 µM)
[5]
  MIC: 25 mg/L (≈ 88.2 µM)
[6]
  MIC: > 200 mg/L
[7]
  MIC: 100 mg/L (≈ 353 µM)
[8]
  MIC: 12.5 mg/L (≈ 44.1 µM)
[9]
  MIC: 3.13 mg/L (≈ 11 µM)
[10]
  MIC: 12.5 mg/L (≈ 44.1 µM)
[11]
  MIC: 25 mg/L (≈ 88.2 µM)
[12]
  MIC: < 0.2 mg/L
[13]
  MIC: 6.25 mg/L (≈ 22.1 µM)
[14]
  MIC: 6.25 mg/L (≈ 22.1 µM)
[15]
  MIC: > 200 mg/L
[16]
  MIC: 3.13 mg/L (≈ 11 µM)
[17]
  MIC: 6.25 mg/L (≈ 22.1 µM)
[18]
  MIC: 1.56 mg/L (≈ 5.51 µM)
[19]
  MIC: > 200 mg/L
[20]
  MIC: 6.25 mg/L (≈ 22.1 µM)
[21]
  MIC: > 200 mg/L
[22]
  MIC: 0.78 mg/L (≈ 2.75 µM)
[23]
  MIC: 200 mg/L (≈ 706 µM)
[24]
  MIC: 1.56 mg/L (≈ 5.51 µM)
[25]
  MIC: 6.25 mg/L (≈ 22.1 µM)
[26]
  MIC: > 200 mg/L
[27]
  MIC: 50 mg/L (≈ 176 µM)
[28]
  MIC: 25 mg/L (≈ 88.2 µM)
[29]
  MIC: 12.5 mg/L (≈ 44.1 µM)
[30]
  MIC: 6.25 mg/L (≈ 22.1 µM)

## [C-]#[N+]C12CC3(/C=C/C(=O)Nc4cccc(N)c4)OC3C1O2 (stereo not drawn) [compound 60]
[1]
  MIC: > 200 mg/L
[2]
  MIC: > 200 mg/L
[3]
  MIC: 12.5 mg/L (≈ 44.1 µM)
[4]
  MIC: 3.13 mg/L (≈ 11 µM)
[5]
  MIC: 25 mg/L (≈ 88.2 µM)
[6]
  MIC: > 200 mg/L
[7]
  MIC: 50 mg/L (≈ 176 µM)
[8]
  MIC: 12.5 mg/L (≈ 44.1 µM)
[9]
  MIC: 1.56 mg/L (≈ 5.51 µM)
[10]
  MIC: 100 mg/L (≈ 353 µM)
[11]
  MIC: 12.5 mg/L (≈ 44.1 µM)
[12]
  MIC: < 0.2 mg/L
[13]
  MIC: 3.13 mg/L (≈ 11 µM)
[14]
  MIC: 3.13 mg/L (≈ 11 µM)
[15]
  MIC: > 200 mg/L
[16]
  MIC: 1.56 mg/L (≈ 5.51 µM)
[17]
  MIC: 3.13 mg/L (≈ 11 µM)
[18]
  MIC: 0.39 mg/L (≈ 1.38 µM)
[19]
  MIC: > 200 mg/L
[20]
  MIC: 3.13 mg/L (≈ 11 µM)
[21]
  MIC: > 200 mg/L
[22]
  MIC: 0.39 mg/L (≈ 1.38 µM)
[23]
  MIC: 200 mg/L (≈ 706 µM)
[24]
  MIC: 0.39 mg/L (≈ 1.38 µM)
[25]
  MIC: 3.13 mg/L (≈ 11 µM)
[26]
  MIC: 200 mg/L (≈ 706 µM)
[27]
  MIC: 25 mg/L (≈ 88.2 µM)
[28]
  MIC: 25 mg/L (≈ 88.2 µM)
[29]
  MIC: 25 mg/L (≈ 88.2 µM)
[30]
  MIC: 6.25 mg/L (≈ 22.1 µM)
